Source: patent US5679695A, “Aryl and heteroaryl compounds having anti-retrovirus activity” (The University of Connecticut, priority 1995, dated 1997)
“And” between values parts separate entries of the source, which are not always exact repeats. Equal values may be shown once.

Key:
Format in all cases: cell-based
[1] = system: Rauscher Murine Leukemia Virus (MLV); test: Rauscher MuLV UV-XC plaque assay
Experimental: One such method is used to determine the effectiveness of representative compounds and compositions of the present invention in the Rauscher and LP-BMS Murine Leukemia Virus (MLV) In Vitro Assays.
SC-1 cells were grown as monolayers in 6-well tissue culture plates (Falcon). The a test compound was added to the cultures at the time of virus inoculation (approximately 24 hours after the cells were seeded) and was present for 3 days, at which time the cultures were irradiated with UV light. All compounds were solubilized in DMSO prior to dilution in grown medium. The highest concentration of DMSO present in the cultures was 0.05%. The test cultures (triplicate cultures per drug concentrate) each contained 2 ml of test compound diluted in growth medium (Eagle's minimum) essential medium (EMEM) supplemented with 5% heat-inactivated fetal bovine serum (FBS) and 0.5 ml of the virus suspension diluted to produce a countable number of plaques per well. The six virus control cultures contained 2 ml of medium and 0.5 ml of the virus suspension. NSC606170(ddC) was included as a positive control. drug. Drug cytotoxicity control cultures (containing test compound) but no virus and cell control culture (containing no test compound) or virus were included in the assay. On day 3 post-virus inoculation, the cultures were irradiated and XC cells were added. Three days after V-irradiation, the cultures were fixed with formalin and stained with 0.1% crystal violet. The plaques were counted with the aid of a dissection microscope.
Using the procedure, the following data is generated from representative compounds of the presnet invention.

HIV = test: Anti-HIV activity in MT-2; settings: Human immunodeficiency virus 1; MT-2, summary table; read-out: MT-2 EC50
Excerpt: Obviously, there is a structure activity relationship with respect to the efficacy of the compounds of the present invention. Factors that affect the relationship may include steric effects, electronic effects, (electron withdrawing or electron donating ability), resonance effects, hydrophobic,hydrophilic, hydrogen bonding parameters, etc. […] Based on the data, it has been determined that there is a direct correlation between the log (EC50)^-1 and the electronic effect of a substituent (a) or more precisely the sum of the sigma (σ) values. (The greater the electron withdrawing ability of a substituent, the higher the value of σ, while a better electron donating group has a lower value of σ.) There appears to be a direct correlation between log (EC50)^-1 and the Σσ; as the Σσ increases, so does the log (EC50)^-1. The addition of substituents to the diphenyl sulfone will affect the factors discussed hereinabove, thus both the log (EC50)^-1 and the Σσ will be affected. Thus for the diphenyl sulfone derivative [drawing 25] the relation is […]

[2] = XTT toxicity control, uninfected culture, CEM-V; settings: human, cem-v cells, read-out: Uninfected culture response
Experimental: (§1) Another assay for testing the efficacy of the compounds is the procedure* used in the National Cancer Institute's test for agents active against Human Immunodeficiency Virus (HIV). It is designed to detect agents acting at any stage of the virus reproductive cycle. The assay basically involves the killing of T4 lymphocytes by HIV. Small amounts of HIV are added to cells, and a complete cycle of virus reproduction is necessary to obtain the required cell killing. Agents that interact with virions, cells, or virus gene-products to interfere with viral activities will protect cells from cytolysis. The system is automated in several features to accommodate large numbers of candidate agents and is generally designed to detect anti-HIV activity. However, compounds that degenerate, or are rapidly metabolized in the culture conditions may not show activity in this screen. All tests are compared with at least one positive (e.g., AZT-treated) control done at the same time under identical conditions.
(§2) * Weislow. O. W., Kiser, R., Fine, D., Bader, J., Shoemaker, R. H., Boyd, M. R.: New soluble-formazan assay for HIV-1 cytopathic effects: application to high-flux screening of synthetic and natural products for AIDS-antiviral activity. J. Natl. Cancer Inst. 81:577-586, 1989.
(§3) 1. The Candidate agent is dissolved in dimethyl sulfoxide (unless otherwise instructed) then diluted 1:100 in cell culture medium before preparing serial half-log10 dilutions. T4 lymphocytes (CEM cell line) are added and after a brief interval HIV-1 added, resulting in a 1:200 final dilution of the compound. Uninfected cells with the compound serve as a toxicity control, and infected and uninfected cells without compound serve as basic controls.
(§4) 2. Cultures are incubated at 37° in a 5% carbon dioxide atmosphere for 6 days.
(§5) 3. The tetrazolium salt, XTT, is added to all wells, and cultures are incubated to allow formazan color development by viable cells.
(§6) 4. Individual wells are analyzed spectrophotometrically to quantitate formazan production, and in addition are viewed microscopically for detection of viable cells and confirmation of protective activity.
(§7) 5. Drug-treated virus-infected cells are compared with drug-treated noninfected cells and with other appropriate controls (untreated infected and untreated noninfected: cells, drug-containing wells without cells, etc.) on the same plate.
(§8) 6. Data are reviewed in comparison with other tests done at the same time and a determination about activity is made.

CEM-V = test: XTT toxicity control, uninfected culture, CEM-V
Experimental: as §1, §2, §3, §4, §5, §6, §7, §8

[3] = Murine leukemia virus, SC-1, 1 × 10^-4 M, read-out: % Plaque Reduction
[4] = Murine leukemia virus, SC-1, 1 × 10^-5 M, read-out: % Plaque Reduction
[5] = Murine leukemia virus, SC-1, 1 × 10^-6 M, read-out: % Plaque Reduction
[6] = Murine leukemia virus, SC-1, 1 × 10^-7 M, read-out: % Plaque Reduction
[7] = Murine leukemia virus, SC-1, 1 × 10^-8 M, read-out: % Plaque Reduction

With `Cc1ccc(S(=O)(=O)c2ccccc2[N+](=O)[O-])cc1` [Compound 2, 1-(4-Methylphenylsulfonyl)-2-nitrobenzene] the Mean plaque count ([1]; 1 × 10^-3 M) was 19, the “Plaque count, replicate #1” value ([1]; 1 × 10^-3 M) was 20 and the “Plaque count, replicate #2” value ([1]; 1 × 10^-3 M) was 20. For the same molecule, the “Plaque count, replicate #3” value ([1]; 1 × 10^-3 M) was 17, the Mean plaque count ([1]; 1 × 10^-4 M) was 8 and the “Plaque count, replicate #1” value ([1]; 1 × 10^-4 M) was 9. The “Plaque count, replicate #2” value ([1]; 1 × 10^-4 M) was 8, the “Plaque count, replicate #3” value ([1]; 1 × 10^-4 M) was 8 and the Mean plaque count ([1]; 1 × 10^-5 M) was 64. For the same molecule, the “Plaque count, replicate #1” value ([1]; 1 × 10^-5 M) was 60, the “Plaque count, replicate #2” value ([1]; 1 × 10^-5 M) was 69 and the “Plaque count, replicate #3” value ([1]; 1 × 10^-5 M) was 64. The Mean plaque count ([1]; 1 × 10^-6 M) was 61, the “Plaque count, replicate #1” value ([1]; 1 × 10^-6 M) was 72 and the “Plaque count, replicate #2” value ([1]; 1 × 10^-6 M) was 53. The “Plaque count, replicate #3” value ([1]; 1 × 10^-6 M) was 5, the Mean plaque count ([1]; 1 × 10^-7 M) was 56 and the “Plaque count, replicate #1” value ([1]; 1 × 10^-7 M) was 52. For the same molecule, the “Plaque count, replicate #2” value ([1]; 1 × 10^-7 M) was 57, the “Plaque count, replicate #3” value ([1]; 1 × 10^-7 M) was 60 and the Mean plaque count ([1]; 1 × 10^-8 M) was 60. The “Plaque count, replicate #1” value ([1]; 1 × 10^-8 M) was 62, the “Plaque count, replicate #2” value ([1]; 1 × 10^-8 M) was 56 and the “Plaque count, replicate #3” value ([1]; 1 × 10^-8 M) was 63. It also gave an inhibition at 1000 µM ([1]; Murine leukemia virus, SC-1, 1 × 10^-3 M, read-out: % Plaque Reduction) of 69%, an inhibition at 100 µM [1, 3] of 87% and an inhibition at 10 µM [1, 4] of 0%. The inhibition at 1 µM [1, 5] was 2%, the inhibition at 0.1 µM [1, 6] was 9% and the inhibition at 0.01 µM [1, 7] was 3%. For the same molecule, the EC50 (HIV) was 3260 nM.

With `O=[N+]([O-])c1ccccc1S(=O)(=O)c1ccccc1` [Compound 1, 1-Nitro-2-(phenylsulfonyl)benzene] the Mean plaque count ([1]; 1 × 10^-4 M) was 46, the “Plaque count, replicate #1” value ([1]; 1 × 10^-4 M) was 43 and the “Plaque count, replicate #2” value ([1]; 1 × 10^-4 M) was 48. The “Plaque count, replicate #3” value ([1]; 1 × 10^-4 M) was 46, the Mean plaque count ([1]; 1 × 10^-5 M) was 53 and the “Plaque count, replicate #1” value ([1]; 1 × 10^-5 M) was 58. For the same molecule, the “Plaque count, replicate #2” value ([1]; 1 × 10^-5 M) was 42, the “Plaque count, replicate #3” value ([1]; 1 × 10^-5 M) was 60 and the Mean plaque count ([1]; 1 × 10^-6 M) was 56. For the same molecule, the “Plaque count, replicate #1” value ([1]; 1 × 10^-6 M) was 71, the “Plaque count, replicate #2” value ([1]; 1 × 10^-6 M) was 43 and the “Plaque count, replicate #3” value ([1]; 1 × 10^-6 M) was 53. The Mean plaque count ([1]; 1 × 10^-7 M) was 64, the “Plaque count, replicate #1” value ([1]; 1 × 10^-7 M) was 53 and the “Plaque count, replicate #2” value ([1]; 1 × 10^-7 M) was 69. The “Plaque count, replicate #3” value ([1]; 1 × 10^-7 M) was 71, the Mean plaque count ([1]; 1 × 10^-8 M) was 65 and the “Plaque count, replicate #1” value ([1]; 1 × 10^-8 M) was 64. For the same molecule, the “Plaque count, replicate #2” value ([1]; 1 × 10^-8 M) was 55, the “Plaque count, replicate #3” value ([1]; 1 × 10^-8 M) was 76 and the inhibition at 100 µM [1, 3] was 26%. It also gave an inhibition at 10 µM [1, 4] of 14%, an inhibition at 1 µM [1, 5] of 10% and an inhibition at 0.1 µM [1, 6] of 0%. For the same molecule, the inhibition at 0.01 µM [1, 7] was 0%, the viability at 0.179 µM ([2]; 1.79 × 10^-7 Molar) was 123% and the viability at 189 µM ([2]; 1.89 × 10^-4 Molar) was 86.7%. The viability at 18.9 µM ([2]; 1.89 × 10^-5 Molar) was 99.9%, the viability at 1.89 µM ([2]; 1.89 × 10^-6 Molar) was 97.9% and the viability at 0.19 µM ([2]; 1.90 × 10^-7 Molar) was 96.9%. It also gave a viability at 59.8 µM ([2]; 5.98 × 10^-5 Molar) of 105%, a viability at 5.99 µM ([2]; 5.99 × 10^-6 Molar) of 111% and a viability at 0.6 µM ([2]; 6.00 × 10^-7 Molar) of 90.4%. It also gave a viability at 0.0601 µM ([2]; 6.01 × 10^-8 Molar) of 105%, a Uninfected culture response (CEM-V; 1.79 × 10^-7 Molar, 0.179 µM) of 106.5% and a Uninfected culture response (CEM-V; 1.89 × 10^-4 Molar, 189 µM) of 89.8%. It also gave a Uninfected culture response (CEM-V; 1.89 × 10^-5 Molar, 18.9 µM) of 100.7%, a Uninfected culture response (CEM-V; 1.89 × 10^-6 Molar, 1.89 µM) of 104.6% and a Uninfected culture response (CEM-V; 1.90 × 10^-7 Molar, 0.19 µM) of 105.1%. For the same molecule, the Uninfected culture response (CEM-V; 5.67 × 10^-7 Molar, 0.567 µM) was 112.5% and 77.9%, the Uninfected culture response (CEM-V; 5.68 × 10^-8 Molar, 0.0568 µM) was 120.4% and 99.0% and the Uninfected culture response (CEM-V; 5.98 × 10^-5 Molar, 59.8 µM) was 99.2%. It also gave a Uninfected culture response (CEM-V; 5.99 × 10^-6 Molar, 5.99 µM) of 111.3%, a Uninfected culture response (CEM-V; 6.00 × 10^-7 Molar, 0.6 µM) of 98.3% and a Uninfected culture response (CEM-V; 6.01 × 10^-8 Molar, 0.0601 µM) of 101.6%. It also gave an EC50 (HIV) of 1160 nM.
